From ChEMBL document CHEMBL2021839, “Pyridine alkaloids from Senna multijuga as acetylcholinesterase inhibitors” (J Nat Prod, 2012)

Columns and labels:
[1] = molecular target: Acetylcholinesterase (Electrophorus electricus) (UniProt O42275); assay: Inhibition of electric eel AChE assessed as minimum concentration required to inhibit enzyme activity after 20 mins by TLC bioautographic assay
[2] = molecular target: Acetylcholinesterase (Electrophorus electricus) (UniProt O42275); assay: Inhibition of electric eel AChE using acetylthiocholine as substrate at 350 uM by Ellman's method

Sequence of Acetylcholinesterase (Electrophorus electricus) (O42275 24-633 limits assumed): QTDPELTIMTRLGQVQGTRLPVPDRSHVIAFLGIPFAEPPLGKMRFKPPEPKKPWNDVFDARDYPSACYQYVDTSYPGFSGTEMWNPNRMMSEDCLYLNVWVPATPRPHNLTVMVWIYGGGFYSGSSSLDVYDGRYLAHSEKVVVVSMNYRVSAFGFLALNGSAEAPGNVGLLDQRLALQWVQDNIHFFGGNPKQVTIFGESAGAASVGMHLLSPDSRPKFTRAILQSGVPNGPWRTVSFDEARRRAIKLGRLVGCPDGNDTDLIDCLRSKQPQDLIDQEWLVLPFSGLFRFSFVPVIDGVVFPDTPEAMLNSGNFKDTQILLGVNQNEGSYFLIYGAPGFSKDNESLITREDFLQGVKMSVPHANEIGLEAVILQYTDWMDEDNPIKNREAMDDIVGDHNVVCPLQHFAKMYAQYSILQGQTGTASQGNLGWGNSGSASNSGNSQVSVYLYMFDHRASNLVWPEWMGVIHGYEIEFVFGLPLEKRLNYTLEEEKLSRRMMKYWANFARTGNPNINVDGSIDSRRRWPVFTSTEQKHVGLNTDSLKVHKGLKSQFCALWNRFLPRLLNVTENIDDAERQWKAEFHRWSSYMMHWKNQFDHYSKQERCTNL

For `Cc1nc(CCCCCCC(O)CCCCCO)ccc1O` (racemic), the MIC [1] was 1.5 µg and the inhibition [2] was 51%.

`Cc1nc(CCCCCCCC(O)CCCCO)ccc1O` (racemic) was tested, and the MIC [1] was 6 µg and the inhibition [2] was 28%.

With `CCCCC(O)CCCCCCCc1ccc(O)c(C)n1` (racemic) the MIC [1] was 1.5 µg and the inhibition [2] was 19%.

Compound `CNC(=O)Oc1ccc2c(c1)[C@]1(C)CCN(C)[C@@H]1N2C` has an MIC [1] of 0.1 µg and an inhibition [2] of 94%.

Work on `CCCCCC(O)CCCCCCc1ccc(O)c(C)n1` (racemic) yielded an MIC [1] of 0.8 µg and an inhibition [2] of 52%.

In the case of `COC(=O)CCCc1ccc(O)c(C)n1`, the MIC [1] is reported as 3 µg and the inhibition [2] is reported as 40%.
